Laboratory results as given in patent US10800772B2 (Gilead Sciences, Inc., priority 2016, dated 2020).

Key:
[1] = Hum MS stability (human microsomal stability half-life); conditions: human microsomes
HIV-IIIb IN T174I BT = experiment: Antiviral assay in MT4 cells, HIV-IIIb IN T174I BT virus (from viral breakthrough); format: cell-based, HIV-1; conditions: Human immunodeficiency virus 1, IIIB, MT4, 120 h, read-out: T174I BT EC50, MT4 cells, HIV-IIIb IN T174I BT (viral breakthrough), 5 days, CellTiter-Glo
How it was run: (§1)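 First, MT4 cells are infected with HIV-IIIb for 3 h at 37 °C (0.004 m.o.i.). Next, 2000 cells are added per well to 3-fold serial compound dilutions and cultured for 5 days. Finally, CellTiter-Glo chemiluminescence is read and EC50 is derived from the 50% signal decrease.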

HIV-IIIb (wildtype) = experiment: Antiviral assay in MT4 cells, HIV-IIIb wildtype; format: cell-based, HIV-1; conditions: Human immunodeficiency virus 1, IIIB, MT4, 120 h, read-out: WT EC50
How it was run: as §1

HIV-IIIb IN T174I DE = experiment: Antiviral assay in MT4 cells, HIV-IIIb IN T174I DE virus (from dose escalation passaging); format: cell-based, HIV-1; conditions: Human immunodeficiency virus 1, IIIB, MT4, 120 h, read-out: T174I DE EC50, MT4 cells, HIV-IIIb IN T174I DE (dose escalation), 5 days, CellTiter-Glo
How it was run: as §1

SMILES	half-life [1]	EC50 (HIV-IIIb IN T174I BT)	EC50 (HIV-IIIb (wildtype))	EC50 (HIV-IIIb IN T174I DE)
COCCN1C(=O)N(c2nn(C)c3ccc(-c4nc5cc(C)c([C@H](OC(C)(C)C)C(=O)O)c(-c6ccc(Cl)cc6)c5s4)cc23)CC1(C)C [Compound 123, (S)-2-(tert-butoxy)-2-(7-(4-chlorophenyl)-2-(3-(3-(2-methoxyethyl)-4,4-dimethyl-2-oxoimidazolidin-1-yl)-1-methyl-1H-indazol-5-yl)-5-methylbenzo[d]thiazol-6-yl)acetic acid]	1.6 h	1450 nM	11 nM	7090 nM
COCCN1CCC(c2nn(C)c3ccc(-c4nc5cc(C)c([C@H](OC(C)(C)C)C(=O)O)c(-c6ccc(Cl)cc6)c5s4)cc23)CC1 [Compound 125, (S)-2-(tert-butoxy)-2-(7-(4-chloro-phenyl)-2-(3-(1-(2-methoxyethyl)piperidin-4-yl)-1-methyl-1H-indazol-5-yl)-5-methylbenzo[d]thiazol-6-yl) acetic acid]	4.38 h	400 nM	8 nM	715 nM
COC1(C)CN(c2nn(C)c3ccc(-c4nc5cc(C)c([C@H](OC(C)(C)C)C(=O)O)c(-c6ccc(Cl)cc6)c5s4)cc23)C1 [Compound 131, (S)-2-(tert-butoxy)-2-(7-(4-chloro-phenyl)-2-(3-(3-methoxy-3-methylazetidin-1-yl)-1-methyl-1H-indazol-5-yl)-5-methylbenzo[d]thiazol-6-yl) acetic acid]	4.15 h	7950 nM	10 nM	3740 nM
CCN1CCN(c2nn(C)c3ccc(-c4nc5cc(C)c([C@H](OC(C)(C)C)C(=O)O)c(-c6ccc(Cl)cc6)c5s4)cc23)CC1 [Compound 133, (S)-2-(tert-butoxy)-2-(7-(4-chloro-phenyl)-2-(3-(4-ethylpiperazin-1-yl)-1-methyl-1H-indazol-5-yl)-5-methylbenzo[d]thiazol-6-yl) acetic acid]	5.82 h	434 nM	3 nM	439 nM
COCCOC1CN(c2nn(C)c3ccc(-c4nc5cc(C)c([C@H](OC(C)(C)C)C(=O)O)c(-c6ccc(Cl)cc6)c5s4)cc23)C1 [Compound 134, (S)-2-(tert-butoxy)-2-(7-(4-chloro-phenyl)-2-(3-(3-(2-methoxyethoxy)azetidin-1-yl)-1-methyl-1H-indazol-5-yl)-5-methylbenzo[d]thiazol-6-yl) acetic acid]	1.48 h	1160 nM	13 nM	2240 nM
COCCN(C)C1CN(c2nn(C)c3ccc(-c4nc5cc(C)c([C@H](OC(C)(C)C)C(=O)O)c(-c6ccc(Cl)cc6)c5s4)cc23)C1 [Compound 145, (S)-2-(tert-butoxy)-2-(7-(4-chloro-phenyl)-2-(3-(3-((2-methoxyethyl) (methyl)amino)azetidin-1-yl)-1-methyl-1H-indazol-5-yl)-5-methylbenzo[d]thiazol-6-yl) acetic acid]	2.15 h	1590 nM	12 nM	2170 nM
Cc1cc2nc(-c3ccc4c(c3)c(C3CCN(C5CC(O)C5)CC3)nn4C)sc2c(-c2ccc(Cl)cc2)c1[C@H](OC(C)(C)C)C(=O)O (stereo partly drawn) [Compound 156, (S)-2-(tert-butoxy)-2-(7-(4-chloro-phenyl)-2-(3-(1-((1s,3s)-3-hydroxy-cyclobutyl)piperidin-4-yl)-1-methyl-1H-indazol-5-yl)-5-methylbenzo[d]thiazol-6-yl) acetic acid]	4.95 h	126 nM	11 nM	197 nM
Cc1cc2nc(-c3ccc4c(c3)c(C3CCN([C@H]5CCN(C)C5)CC3)nn4C)sc2c(-c2ccc(Cl)cc2)c1[C@H](OC(C)(C)C)C(=O)O [Compound 163, (S)-2-(tert-butoxy)-2-(7-(4-chloro-phenyl)-5-methyl-2-(1-methyl-3-(1-((S)-1-methyl-pyrrolidin-3-yl)piperidin-4-yl)-1H-indazol-5-yl)benzo[d]thiazol-6-yl)acetic acid]	2.12 h	204 nM	20 nM	324 nM
CC(=O)N1CC[C@H](N2CCC(c3nn(C)c4ccc(-c5nc6cc(C)c([C@H](OC(C)(C)C)C(=O)O)c(-c7ccc(Cl)cc7)c6s5)nc34)CC2)C1 [Compound 170, (S)-2-(2-(3-(1-((S)-1-acetyl-pyrrolidin-3-yl)piperidin-4-yl)-1-methyl-1H-pyrazolo[4,3-b]pyridin-5-yl)-7-(4-chlorophenyl)-5-methylbenzo [d]thiazol-6-yl)-2-(tert-butoxy) acetic acid]	0.533 h	57 nM	2 nM	112 nM
Cc1cc2nc(-c3ccc4c(n3)c(C3CCN([C@H]5CCN(C)C5)CC3)nn4C)sc2c(-c2ccc(Cl)cc2)c1[C@H](OC(C)(C)C)C(=O)O [Compound 172, (S)-2-(tert-butoxy)-2-(7-(4-chloro-phenyl)-5-methyl-2-(1-methyl-3-(1-((S)-1-methyl-pyrrolidin-3-yl)piperidin-4-yl)-1H-pyrazolo[4,3-b]pyridin-5-yl)benzo[d]thiazol-6-yl)acetic acid]	0.933 h	54 nM	5 nM	118 nM
Cc1cc2nc(-c3ccc4c(n3)c(C3CCN(CCN(C)C)CC3)nn4C)sc2c(-c2ccc(Cl)cc2)c1[C@H](OC(C)(C)C)C(=O)O [Compound 173, (S)-2-(tert-butoxy)-2-(7-(4-chloro-phenyl)-2-(3-(1-(2-(dimethylamino)ethyl)piperidin-4-yl)-1-methyl-1H-pyrazolo[4,3-b]pyridin-5-yl)-5-methylbenzo[d]thiazol-6-yl) acetic acid]	1.2 h	45 nM	2 nM	89 nM
Cc1cc2nc(-c3ccc4c(n3)c(C3CCN(C5COC5)CC3)nn4C)sc2c(-c2ccc(Cl)cc2)c1[C@H](OC(C)(C)C)C(=O)O [Compound 175, (S)-2-(tert-butoxy)-2-(7-(4-chloro-phenyl)-5-methyl-2-(1-methyl-3-(1-(oxetan-3-yl)piperidin-4-yl)-1H-pyrazolo [4,3-b]pyridin-5-yl)benzo[d]thiazol-6-yl) acetic acid]	5.95 h	122 nM	3 nM	252 nM
Cc1cc2nc(-c3ccc4c(n3)c(C3CCN(C5CN(C)C5)CC3)nn4C)sc2c(-c2ccc(Cl)cc2)c1[C@H](OC(C)(C)C)C(=O)O [Compound 184, (S)-2-(tert-butoxy)-2-(7-(4-chloro-phenyl)-5-methyl-2-(1-methyl-3-(1-(1-methylazetidin-3-yl)piperidin-4-yl)-1H-pyrazolo [4,3-b]pyridin-5-yl)benzo[d]thiazol-6-yl) acetic acid]	0.767 h	103 nM	4 nM	218 nM
CC(=O)N1CC(N2CCC(c3nn(C)c4ccc(-c5nc6cc(C)c([C@H](OC(C)(C)C)C(=O)O)c(-c7ccc(Cl)cc7)c6s5)nc34)CC2)C1 [Compound 185, (S)-2-(2-(3-(1-(1-acetylazetidin-3-yl)piperidin-4-yl)-1-methyl-1H-pyrazolo[4,3-b]pyridin-5-yl)-7-(4-chlorophenyl)-5-methylbenzo [d]thiazol-6-yl)-2-(tert-butoxy) acetic acid]	0.6 h	35 nM	1 nM	66 nM
